Values quoted from earlier work, collected in patent US8088760B2, “Benzoxazole carboxamide inhibitors of poly(ADP-ribose)polymerase (PARP)” (BioMarin Pharmaceutical Inc., priority 2008, dated 2012).

Assays:
[1] = tested on: BRCA2-deficient cell line V-C8; details: BRCA2-deficient cell line V-C8 compared with the BRCA2 wild type control
PARP-1 = PARP-1 (Homo sapiens, UniProt P09874); details: PARP-1 inhibitor
CAPAN-1 cells = CAPAN-1 cells maintained in DMEM supplemented with FCS (20% v/v), glutamine and antibiotics

Sequence of PARP-1 (P09874 whole entry, species assumed): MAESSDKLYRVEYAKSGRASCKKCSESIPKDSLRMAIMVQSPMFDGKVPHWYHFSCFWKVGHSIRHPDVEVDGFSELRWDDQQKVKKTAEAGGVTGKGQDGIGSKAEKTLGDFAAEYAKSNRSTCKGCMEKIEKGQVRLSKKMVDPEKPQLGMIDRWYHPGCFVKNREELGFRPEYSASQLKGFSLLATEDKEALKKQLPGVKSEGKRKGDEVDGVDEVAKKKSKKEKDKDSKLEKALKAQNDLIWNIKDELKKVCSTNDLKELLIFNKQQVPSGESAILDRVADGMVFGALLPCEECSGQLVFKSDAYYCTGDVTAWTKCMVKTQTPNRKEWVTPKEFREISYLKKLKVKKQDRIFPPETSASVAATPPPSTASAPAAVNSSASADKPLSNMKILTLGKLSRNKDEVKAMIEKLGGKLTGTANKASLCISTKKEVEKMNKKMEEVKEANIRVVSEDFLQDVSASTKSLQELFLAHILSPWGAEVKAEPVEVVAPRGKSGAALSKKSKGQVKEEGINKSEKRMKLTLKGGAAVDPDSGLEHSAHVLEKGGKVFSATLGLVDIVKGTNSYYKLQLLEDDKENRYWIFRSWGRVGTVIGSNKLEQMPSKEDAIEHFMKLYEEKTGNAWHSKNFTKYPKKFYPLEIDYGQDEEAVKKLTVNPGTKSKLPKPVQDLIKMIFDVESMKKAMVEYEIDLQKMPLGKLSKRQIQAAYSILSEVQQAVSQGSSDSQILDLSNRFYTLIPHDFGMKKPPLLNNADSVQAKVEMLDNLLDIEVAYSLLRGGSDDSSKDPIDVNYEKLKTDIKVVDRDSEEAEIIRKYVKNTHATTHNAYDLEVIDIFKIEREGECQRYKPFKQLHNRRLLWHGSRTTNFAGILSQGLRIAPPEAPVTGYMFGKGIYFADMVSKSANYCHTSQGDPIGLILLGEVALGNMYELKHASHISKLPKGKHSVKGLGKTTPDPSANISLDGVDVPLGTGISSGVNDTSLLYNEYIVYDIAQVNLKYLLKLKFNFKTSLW

Structure (SMILES): CN(C)Cc1ccc(-c2nc3cccc4c3n2CCNC4=O)cc1 [AG14361]
- sensitivity in clonogenic survival assay [1]: exhibited sensitivity
- Ki (PARP-1): 5 nM

Structure (SMILES): O=C1CCC(=O)N1c1cc(Cc2n[nH]c(=O)c3ccccc23)ccc1F [KU0058684]
- in vivo efficacy in blocking tumor growth (BRCA2-deficient tumors): in vivo efficacy in blocking the growth of BRCA2-deficient tumors
- sensitivity in clonogenic survival assay (CAPAN-1 cells): showing sensitivity to PARP inhibition

Structure (SMILES): Cc1nc2c(O)cccc2c(=O)[nH]1 [NU1025]
- sensitivity in clonogenic survival assay [1]: exhibited sensitivity
- Ki (PARP-1): 50 nM
